Inhibition data for one compound are collected here from ChEMBL document CHEMBL4813977, “Discovery of potent colony-stimulating factor 1 receptor inhibitors by replacement of hinge-binder moieties” (Eur J Med Chem, 2021).

For orientation: inhibition means the relative decrease from the control value, in per cent.

Activity calls are given as the source filed them. No cut-off for these calls is given here.

Assay [1] has as its target Tyrosine-protein kinase JAK2 (Homo sapiens) (UniProt O60674). Description: Inhibition of human JAK2 at 0.1 uM using poly[Glu:Tyr] (4:1) as substrate in presence of [gamma-33P]-ATP by radiometric assay relative to control.
For assay [2], the target named is ALK tyrosine kinase receptor (Homo sapiens) (UniProt Q9UM73). The assay is described as follows: Inhibition of human ALK at 0.1 uM using poly[Glu:Tyr] (4:1) as substrate in presence of [gamma-33P]-ATP by radiometric assay relative to control.
Assay [3] has as its target Serine/threonine-protein kinase B-raf (Homo sapiens) (UniProt P15056). The assay is described as follows: Inhibition of human BRAF at 0.1 uM using MEK1 (K97R) as substrate in presence of [gamma-33P]-ATP by radiometric assay relative to control.
For assay [4], the target named is Mitogen-activated protein kinase 1 (Homo sapiens) (UniProt P28482). The assay is described as follows: Inhibition of human ERK2 at 0.1 uM using MBP as substrate in presence of [gamma-33P]-ATP by radiometric assay relative to control.
The target in assay [5] is T1, Macrophage colony-stimulating factor 1 receptor (Mus musculus) (UniProt P09581).
T1 sequence (whole entry): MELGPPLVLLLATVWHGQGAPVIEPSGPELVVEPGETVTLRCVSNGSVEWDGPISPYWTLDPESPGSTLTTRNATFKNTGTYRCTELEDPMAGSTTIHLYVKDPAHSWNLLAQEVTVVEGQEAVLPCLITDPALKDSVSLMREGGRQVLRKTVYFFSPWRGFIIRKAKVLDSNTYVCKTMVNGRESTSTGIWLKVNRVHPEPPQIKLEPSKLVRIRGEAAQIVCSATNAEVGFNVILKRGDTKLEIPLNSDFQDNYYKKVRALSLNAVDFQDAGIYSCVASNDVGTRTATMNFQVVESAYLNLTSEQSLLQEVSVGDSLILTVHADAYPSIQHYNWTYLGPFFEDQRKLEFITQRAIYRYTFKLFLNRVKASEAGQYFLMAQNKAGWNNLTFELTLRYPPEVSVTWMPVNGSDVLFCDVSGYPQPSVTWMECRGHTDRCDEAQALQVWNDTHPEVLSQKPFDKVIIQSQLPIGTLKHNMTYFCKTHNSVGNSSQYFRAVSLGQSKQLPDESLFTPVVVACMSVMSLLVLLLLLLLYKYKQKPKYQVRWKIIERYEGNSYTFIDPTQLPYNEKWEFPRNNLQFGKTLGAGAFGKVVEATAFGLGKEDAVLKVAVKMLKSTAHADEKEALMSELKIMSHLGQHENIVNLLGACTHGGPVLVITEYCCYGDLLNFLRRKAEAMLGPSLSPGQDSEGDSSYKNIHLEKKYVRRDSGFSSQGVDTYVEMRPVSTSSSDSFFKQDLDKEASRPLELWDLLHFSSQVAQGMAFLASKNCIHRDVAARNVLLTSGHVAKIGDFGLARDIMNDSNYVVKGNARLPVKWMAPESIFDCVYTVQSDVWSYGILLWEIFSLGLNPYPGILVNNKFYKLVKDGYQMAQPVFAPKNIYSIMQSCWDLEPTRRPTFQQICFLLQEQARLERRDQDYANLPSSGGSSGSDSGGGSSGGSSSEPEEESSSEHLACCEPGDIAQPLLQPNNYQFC
The assay is described as follows: Inhibition of CSF1R phosphorylation in mouse RAW 264.7 cells at 10 to 100 nM preincubated for 5 hrs followed by CSF stimulation for 10 mins by Western blot analysis. Format: cell-based. The settings on record: RAW264.7, dose 10-100 nM, time 310.0 min. (In western blotting, separated proteins are transferred to a membrane and probed.)

In assay [6] the target is Mast/stem cell growth factor receptor Kit (Homo sapiens) (UniProt P10721). The settings on record: dose 100.0 nM.
Description: Inhibition of human c-KIT at 100 nM using poly[Glu:Tyr] (4:1) as substrate in presence of [gamma-33P]-ATP by radiometric assay relative to control
The target of assay [7] is Tyrosine-protein kinase Lyn (Homo sapiens) (UniProt P07948). The assay is described as follows: Inhibition of human LYN at 0.1 uM using poly[Glu:Tyr] (4:1) as substrate in presence of [gamma-33P]-ATP by radiometric assay relative to control.
Assay [8] deals with Macrophage colony-stimulating factor 1 receptor (Homo sapiens) (UniProt P07333). The settings on record: dose 10.0 nM.
Description: Inhibition of human CSF1R at 10 nM using poly[Glu:Tyr] (4:1) as substrate in presence of [gamma-33P]-ATP by radiometric assay relative to control
Assay [9] concerns the target Receptor-type tyrosine-protein kinase FLT3 (Homo sapiens) (UniProt P36888). The settings on record: dose 10.0 nM.
Assay [10] deals with Dual specificity mitogen-activated protein kinase kinase 1 (Homo sapiens) (UniProt Q02750). The assay is described as follows: Inhibition of human MEK1 at 0.1 uM using ERK2 (K52R) as substrate in presence of [gamma-33P]-ATP by radiometric assay relative to control.
Assay [11] has as its target Macrophage colony-stimulating factor 1 receptor (Homo sapiens) (UniProt P07333). The settings on record: dose 100.0 nM.
Description: Inhibition of human CSF1R at 100 nM using poly[Glu:Tyr] (4:1) as substrate in presence of [gamma-33P]-ATP by radiometric assay relative to control
Assay [12] deals with Non-receptor tyrosine-protein kinase TYK2 (Homo sapiens) (UniProt P29597). The assay is described as follows: Inhibition of human TYK2 at 0.1 uM using KKSRGDYMTMQIG as substrate in presence of [gamma-33P]-ATP by radiometric assay relative to control.
In assay [13] the target is T2, Tyrosine-protein kinase JAK3 (Homo sapiens) (UniProt P52333).
T2 sequence (whole entry): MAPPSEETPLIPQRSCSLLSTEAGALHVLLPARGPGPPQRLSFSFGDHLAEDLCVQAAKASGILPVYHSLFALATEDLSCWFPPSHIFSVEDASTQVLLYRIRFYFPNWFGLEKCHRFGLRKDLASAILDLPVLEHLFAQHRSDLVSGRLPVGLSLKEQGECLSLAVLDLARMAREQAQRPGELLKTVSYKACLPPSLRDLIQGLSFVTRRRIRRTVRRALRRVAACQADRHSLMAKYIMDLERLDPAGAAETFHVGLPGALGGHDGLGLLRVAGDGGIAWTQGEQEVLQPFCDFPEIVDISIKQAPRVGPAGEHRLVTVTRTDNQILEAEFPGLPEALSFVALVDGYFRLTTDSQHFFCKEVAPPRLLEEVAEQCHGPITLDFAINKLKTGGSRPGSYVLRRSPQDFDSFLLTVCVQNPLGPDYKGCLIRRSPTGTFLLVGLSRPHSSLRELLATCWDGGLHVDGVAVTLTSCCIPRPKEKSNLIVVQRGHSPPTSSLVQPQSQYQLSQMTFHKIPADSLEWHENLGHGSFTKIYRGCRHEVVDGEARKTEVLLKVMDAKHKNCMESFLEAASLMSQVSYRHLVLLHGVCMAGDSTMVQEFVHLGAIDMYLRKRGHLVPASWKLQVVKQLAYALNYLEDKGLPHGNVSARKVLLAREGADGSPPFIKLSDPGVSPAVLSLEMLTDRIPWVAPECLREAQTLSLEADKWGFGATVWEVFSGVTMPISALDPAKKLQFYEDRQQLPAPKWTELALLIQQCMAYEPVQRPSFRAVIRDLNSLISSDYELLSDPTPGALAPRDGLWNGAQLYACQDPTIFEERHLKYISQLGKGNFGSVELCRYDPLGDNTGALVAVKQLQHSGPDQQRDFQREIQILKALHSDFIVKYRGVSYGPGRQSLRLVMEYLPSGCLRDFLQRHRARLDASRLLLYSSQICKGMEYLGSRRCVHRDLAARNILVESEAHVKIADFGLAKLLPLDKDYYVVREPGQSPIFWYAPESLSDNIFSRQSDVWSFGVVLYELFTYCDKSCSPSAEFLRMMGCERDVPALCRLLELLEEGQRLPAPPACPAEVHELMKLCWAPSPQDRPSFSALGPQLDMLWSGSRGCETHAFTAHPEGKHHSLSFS
The assay is described as follows: Inhibition of human JAK3 at 0.1 uM using GGEEEEYFELVKKKK as substrate in presence of [gamma-33P]-ATP by radiometric assay relative to control.

For assay [14], the species on record is Homo sapiens. Description: Inhibition of human PKA at 0.1 uM using LCGRTGRRNSI as substrate in presence of [gamma-33P]-ATP by radiometric assay relative to control.
The target of assay [15] is Tyrosine-protein kinase Lck (Homo sapiens) (UniProt P06239). Description: Inhibition of human LCK at 0.1 uM using poly[Glu:Tyr] (4:1) as substrate jn presence of [gamma-33P]-ATP by radiometric assay relative to control.
Assay [16] has as its target Epidermal growth factor receptor (Homo sapiens) (UniProt P00533). The assay is described as follows: Inhibition of human EGFR at 0.1 uM using poly[Glu:Tyr] (4:1) as substrate in presence of [gamma-33P]-ATP by radiometric assay relative to control.
Assay [17] has as its target Mast/stem cell growth factor receptor Kit (Homo sapiens) (UniProt P10721). The settings on record: dose 10.0 nM.
Description: Inhibition of human c-KIT at 10 nM using poly[Glu:Tyr] (4:1) as substrate in presence of [gamma-33P]-ATP by radiometric assay relative to control
For assay [18], the target named is Receptor-type tyrosine-protein kinase FLT3 (Homo sapiens) (UniProt P36888). The settings on record: dose 100.0 nM.
Assay [19] concerns the target Tyrosine-protein kinase ABL1 (Homo sapiens) (UniProt P00519). The assay is described as follows: Inhibition of human ABL1 at 0.1 uM using EAIYAAPFAKKK as substrate in presence of [gamma-33P]-ATP by radiometric assay relative to control.

Sequence of Receptor-type tyrosine-protein kinase FLT3 (Homo sapiens) (P36888 whole entry): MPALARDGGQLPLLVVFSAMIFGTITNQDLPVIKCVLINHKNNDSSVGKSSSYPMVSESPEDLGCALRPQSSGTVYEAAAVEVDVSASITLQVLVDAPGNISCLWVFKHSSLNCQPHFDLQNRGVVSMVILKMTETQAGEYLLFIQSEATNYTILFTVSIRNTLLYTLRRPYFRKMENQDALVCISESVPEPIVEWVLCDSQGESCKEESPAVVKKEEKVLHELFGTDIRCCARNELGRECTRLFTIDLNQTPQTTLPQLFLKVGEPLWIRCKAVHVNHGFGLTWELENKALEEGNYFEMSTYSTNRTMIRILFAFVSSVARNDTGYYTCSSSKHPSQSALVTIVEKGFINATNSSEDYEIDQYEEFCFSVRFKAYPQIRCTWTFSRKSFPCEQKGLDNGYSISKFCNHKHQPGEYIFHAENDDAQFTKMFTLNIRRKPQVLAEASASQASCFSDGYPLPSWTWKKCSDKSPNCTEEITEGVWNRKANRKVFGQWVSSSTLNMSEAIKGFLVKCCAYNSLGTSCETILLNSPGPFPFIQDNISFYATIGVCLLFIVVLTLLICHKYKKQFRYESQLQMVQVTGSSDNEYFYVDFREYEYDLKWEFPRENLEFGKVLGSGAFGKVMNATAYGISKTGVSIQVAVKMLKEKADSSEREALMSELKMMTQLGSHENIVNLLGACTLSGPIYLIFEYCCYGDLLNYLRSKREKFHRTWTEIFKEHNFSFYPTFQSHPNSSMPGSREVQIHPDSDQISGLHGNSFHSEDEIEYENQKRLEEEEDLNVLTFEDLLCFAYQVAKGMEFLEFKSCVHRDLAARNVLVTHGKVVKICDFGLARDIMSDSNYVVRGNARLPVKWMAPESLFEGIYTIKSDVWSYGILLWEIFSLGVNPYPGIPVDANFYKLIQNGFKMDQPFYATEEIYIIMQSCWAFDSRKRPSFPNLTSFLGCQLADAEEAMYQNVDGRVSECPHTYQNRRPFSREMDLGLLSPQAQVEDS
Sequence of Mast/stem cell growth factor receptor Kit (Homo sapiens) (P10721 whole entry): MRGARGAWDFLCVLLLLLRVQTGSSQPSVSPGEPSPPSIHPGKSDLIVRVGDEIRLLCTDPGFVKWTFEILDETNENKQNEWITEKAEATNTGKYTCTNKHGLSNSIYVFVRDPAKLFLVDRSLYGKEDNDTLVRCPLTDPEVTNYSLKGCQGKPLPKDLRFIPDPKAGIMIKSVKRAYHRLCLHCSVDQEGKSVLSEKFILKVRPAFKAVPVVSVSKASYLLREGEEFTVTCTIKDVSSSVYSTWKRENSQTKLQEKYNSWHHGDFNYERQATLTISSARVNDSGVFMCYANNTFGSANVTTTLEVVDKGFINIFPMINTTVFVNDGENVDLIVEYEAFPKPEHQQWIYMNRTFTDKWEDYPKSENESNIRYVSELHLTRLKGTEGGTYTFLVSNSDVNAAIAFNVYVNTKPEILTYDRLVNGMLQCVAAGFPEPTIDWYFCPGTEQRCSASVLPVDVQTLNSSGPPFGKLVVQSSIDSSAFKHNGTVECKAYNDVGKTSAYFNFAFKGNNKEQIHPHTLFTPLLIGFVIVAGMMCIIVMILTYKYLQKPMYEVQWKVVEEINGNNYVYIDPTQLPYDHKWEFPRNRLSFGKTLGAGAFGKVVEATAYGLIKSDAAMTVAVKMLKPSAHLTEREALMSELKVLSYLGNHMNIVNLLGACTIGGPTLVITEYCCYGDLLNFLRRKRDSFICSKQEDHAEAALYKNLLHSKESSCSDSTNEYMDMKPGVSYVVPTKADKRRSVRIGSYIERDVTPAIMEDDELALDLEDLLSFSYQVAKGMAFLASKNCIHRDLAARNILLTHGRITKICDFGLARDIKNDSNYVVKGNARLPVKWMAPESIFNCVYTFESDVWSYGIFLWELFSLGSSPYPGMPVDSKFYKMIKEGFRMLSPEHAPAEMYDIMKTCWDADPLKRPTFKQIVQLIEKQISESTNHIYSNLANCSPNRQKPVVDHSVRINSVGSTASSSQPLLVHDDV
Sequence of Macrophage colony-stimulating factor 1 receptor (Homo sapiens) (P07333 whole entry): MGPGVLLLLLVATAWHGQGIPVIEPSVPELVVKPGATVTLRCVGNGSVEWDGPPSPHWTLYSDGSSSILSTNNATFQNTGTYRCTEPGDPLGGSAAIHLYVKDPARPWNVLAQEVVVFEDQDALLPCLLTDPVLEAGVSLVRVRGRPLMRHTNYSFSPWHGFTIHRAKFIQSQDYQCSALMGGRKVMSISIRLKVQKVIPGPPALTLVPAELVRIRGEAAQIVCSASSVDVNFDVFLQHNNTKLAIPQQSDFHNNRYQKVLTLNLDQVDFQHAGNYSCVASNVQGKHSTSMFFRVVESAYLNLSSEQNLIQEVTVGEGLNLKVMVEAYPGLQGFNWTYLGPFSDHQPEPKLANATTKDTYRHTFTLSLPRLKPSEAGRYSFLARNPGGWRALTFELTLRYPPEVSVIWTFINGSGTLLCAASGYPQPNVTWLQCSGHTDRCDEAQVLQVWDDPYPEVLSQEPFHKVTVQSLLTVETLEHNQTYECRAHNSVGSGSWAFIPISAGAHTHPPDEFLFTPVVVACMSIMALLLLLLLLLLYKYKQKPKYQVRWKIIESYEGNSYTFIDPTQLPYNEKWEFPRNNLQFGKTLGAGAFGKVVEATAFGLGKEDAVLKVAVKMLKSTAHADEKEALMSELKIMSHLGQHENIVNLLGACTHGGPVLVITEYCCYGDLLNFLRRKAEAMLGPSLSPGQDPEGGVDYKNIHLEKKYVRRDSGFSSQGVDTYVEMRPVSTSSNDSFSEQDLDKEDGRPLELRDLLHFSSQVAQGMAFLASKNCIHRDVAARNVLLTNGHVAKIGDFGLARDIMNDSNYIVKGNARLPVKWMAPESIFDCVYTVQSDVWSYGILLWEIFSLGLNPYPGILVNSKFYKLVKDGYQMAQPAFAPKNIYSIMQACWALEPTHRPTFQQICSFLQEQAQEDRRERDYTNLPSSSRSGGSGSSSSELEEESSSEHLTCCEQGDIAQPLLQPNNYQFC
Sequence of Non-receptor tyrosine-protein kinase TYK2 (Homo sapiens) (P29597 whole entry): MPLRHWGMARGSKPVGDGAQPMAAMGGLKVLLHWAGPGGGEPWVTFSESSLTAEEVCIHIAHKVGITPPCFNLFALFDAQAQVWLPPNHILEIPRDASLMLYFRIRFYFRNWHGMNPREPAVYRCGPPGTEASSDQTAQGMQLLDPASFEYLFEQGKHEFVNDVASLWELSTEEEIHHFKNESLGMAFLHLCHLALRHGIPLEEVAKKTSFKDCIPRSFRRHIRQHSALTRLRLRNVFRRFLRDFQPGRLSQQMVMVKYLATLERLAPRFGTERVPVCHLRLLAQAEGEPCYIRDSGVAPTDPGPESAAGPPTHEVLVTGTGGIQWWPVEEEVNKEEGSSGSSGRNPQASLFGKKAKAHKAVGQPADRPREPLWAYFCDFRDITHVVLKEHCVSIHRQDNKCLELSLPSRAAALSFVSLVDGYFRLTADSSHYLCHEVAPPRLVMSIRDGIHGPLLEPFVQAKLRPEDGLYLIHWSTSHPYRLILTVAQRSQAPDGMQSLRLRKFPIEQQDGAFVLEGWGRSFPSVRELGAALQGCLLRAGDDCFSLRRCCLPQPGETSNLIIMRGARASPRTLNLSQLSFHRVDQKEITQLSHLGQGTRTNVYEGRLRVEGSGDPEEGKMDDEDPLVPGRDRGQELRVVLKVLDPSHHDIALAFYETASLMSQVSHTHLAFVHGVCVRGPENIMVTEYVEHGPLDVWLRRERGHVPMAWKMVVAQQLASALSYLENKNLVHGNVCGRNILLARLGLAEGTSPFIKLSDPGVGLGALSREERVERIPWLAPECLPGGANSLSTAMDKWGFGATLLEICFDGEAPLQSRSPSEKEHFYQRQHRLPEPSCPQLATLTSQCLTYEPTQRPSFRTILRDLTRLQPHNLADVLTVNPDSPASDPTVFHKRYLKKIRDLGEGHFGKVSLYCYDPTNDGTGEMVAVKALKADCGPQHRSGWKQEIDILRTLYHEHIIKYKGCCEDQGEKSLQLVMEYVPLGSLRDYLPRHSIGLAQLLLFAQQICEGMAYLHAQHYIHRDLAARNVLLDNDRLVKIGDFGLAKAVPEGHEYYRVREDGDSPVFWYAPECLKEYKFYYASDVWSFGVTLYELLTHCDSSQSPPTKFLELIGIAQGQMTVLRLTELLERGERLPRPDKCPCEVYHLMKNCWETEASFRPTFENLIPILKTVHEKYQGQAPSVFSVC
Sequence of Dual specificity mitogen-activated protein kinase kinase 1 (Homo sapiens) (Q02750 whole entry): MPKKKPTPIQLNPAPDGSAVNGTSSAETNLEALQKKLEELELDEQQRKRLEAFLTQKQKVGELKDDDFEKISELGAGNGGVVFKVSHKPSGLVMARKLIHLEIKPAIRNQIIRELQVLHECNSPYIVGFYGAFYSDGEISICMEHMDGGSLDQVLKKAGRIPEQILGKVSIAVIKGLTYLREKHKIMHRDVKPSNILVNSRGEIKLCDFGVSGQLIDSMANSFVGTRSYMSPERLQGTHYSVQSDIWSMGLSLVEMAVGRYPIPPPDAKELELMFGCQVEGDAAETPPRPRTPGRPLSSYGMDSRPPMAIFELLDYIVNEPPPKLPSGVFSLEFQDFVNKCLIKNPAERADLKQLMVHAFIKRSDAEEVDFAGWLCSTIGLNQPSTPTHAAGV
Sequence of Tyrosine-protein kinase Lck (Homo sapiens) (P06239 2-509 limits assumed): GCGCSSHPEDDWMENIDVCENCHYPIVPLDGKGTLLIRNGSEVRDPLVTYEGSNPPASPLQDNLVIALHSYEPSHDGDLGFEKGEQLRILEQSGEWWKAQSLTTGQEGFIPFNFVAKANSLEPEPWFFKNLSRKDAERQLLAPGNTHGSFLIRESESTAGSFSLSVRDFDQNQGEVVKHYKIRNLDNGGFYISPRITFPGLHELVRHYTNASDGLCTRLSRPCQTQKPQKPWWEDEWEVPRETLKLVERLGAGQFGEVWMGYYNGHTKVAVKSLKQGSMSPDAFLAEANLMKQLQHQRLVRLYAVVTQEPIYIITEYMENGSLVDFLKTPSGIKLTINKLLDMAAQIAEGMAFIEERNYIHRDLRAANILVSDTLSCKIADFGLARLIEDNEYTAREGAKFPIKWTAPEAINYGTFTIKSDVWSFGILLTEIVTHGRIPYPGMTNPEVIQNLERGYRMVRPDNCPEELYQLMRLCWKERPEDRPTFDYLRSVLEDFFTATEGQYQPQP

On to `Cc1ccc(NC(=O)c2ccc(C(F)(F)F)nc2)cc1NC(=O)c1cnc2ccccn12`, for which the inhibition was 0% in [1]; 41% in [2]; 39% in assay [3]; 0% in assay [4]; 58% in assay [6]; 93% in assay [7]. Moreover, the inhibition in [8] was determined as 87%; in [9], 3%; in [10] it was 30%; in assay [11], 97%; in assay [12] it was 16%; in [13], 0%. The inhibition amounted to 42% in assay [14]; 75% in assay [15]; 60% in assay [16]; 35% in assay [17]; 4% in assay [18]; 79% in assay [19]. Moreover, the inhibition result in assay [5] was “Active”.
